For one test, the system named is Ishikawa cells. The experiment in a line: Ishikawa Cell Alkaline Phosphatase Assay. To be noted: for % Activation (Compound ± 1 nM 17β-estradiol) (alkaline phosphatase): 10^-6 M compound + 1 nM 17β-estradiol, 48 h (antiestrogen test); for % Activation (alkaline phosphatase): compound alone, 48 h, percent of response related to 1 nM 17β-estradiol. Format: cell-based, human. The procedure:
Ishikawa Cell Alkaline Phosphatase Assay
(§1) Cell Maintenance and Treatment
Ishikawa cells were maintained in DMEM/F12 (50%:50%) containing phenol red+10% fetal bovine serum and the medium was supplemented with 2 mM Glutamax, 1% Pen/Strap and 1 mM sodium pyruvate. Five days prior to the beginning of each experiment (treatment of cells) the medium was changed to phenol red-free DMEM/F12+10% dextran coated charcoal stripped serum. On the day before treatment, cells were harvested using 0.5% trypsin/EDTA and plated at a density of 5×10^4 cells/well in 96-well tissue culture plates. […] Cells were treated for 48 h prior to assay. […] Sample population for at each dose was n=8.
Alkaline Phosphatase Assay
At the end of 48 h the media is aspirated and cells are washed three times with phosphate buffered saline (PBS). 50 μL of lysis buffer (0.1 M Tris-HCl, pH 9.8, 0.2% Triton X-100) is added to each well. Plates are placed at -80° C. for a minimum of 15 minutes. Plates are thawed at 37° C. followed by the addition of 150 μL of 0.1 M Tris-HCl, pH 9.8, containing 4 mM para-nitrophenylphosphate (pNPP) to each well (final concentration, 3 mM pNPP).
Absorbance and slope calculations were made using the KineticCalc Application program (Bio-Tek Instruments, Inc., Winooski, Vt.). Results are expressed as the mean +/-S.D. of the rate of enzyme reaction (slope) averaged over the linear portion of the kinetic reaction curve (optical density readings every 5 minutes for 30 minutes absorbance reading).
Various compounds were assayed for estrogenic activity by the alkaline phosphatase method and corresponding ED50 values (95% C.I.) were calculated. The four listed in the following were used as reference standards:
A description of such methods is provided by Holinka, C. F., Hata, H., Kuramoto, H. and Gurpide, E. (1986) Effects of steroid hormones and antisteroids on alkaline phosphatase activity in human endometrial cancer cells (Ishikawa Line). Cancer Research, 46:2771-2774, and by Littlefield, B. A., Gurpide, E., Markiewicz, L., McKinley, B. and by Hochberg, R. B. (1990) A simple and sensitive microtiter plate estrogen bioassay based on stimulation alkaline phosphatase in Ishikawa cells; Estrogen action of D5 adrenal steroids. Endocrinology, 6:2757-2762.

Test [1] deals with T1, estrogen receptor (Homo sapiens, UniProt P03372).
T1 sequence (P03372 1-595): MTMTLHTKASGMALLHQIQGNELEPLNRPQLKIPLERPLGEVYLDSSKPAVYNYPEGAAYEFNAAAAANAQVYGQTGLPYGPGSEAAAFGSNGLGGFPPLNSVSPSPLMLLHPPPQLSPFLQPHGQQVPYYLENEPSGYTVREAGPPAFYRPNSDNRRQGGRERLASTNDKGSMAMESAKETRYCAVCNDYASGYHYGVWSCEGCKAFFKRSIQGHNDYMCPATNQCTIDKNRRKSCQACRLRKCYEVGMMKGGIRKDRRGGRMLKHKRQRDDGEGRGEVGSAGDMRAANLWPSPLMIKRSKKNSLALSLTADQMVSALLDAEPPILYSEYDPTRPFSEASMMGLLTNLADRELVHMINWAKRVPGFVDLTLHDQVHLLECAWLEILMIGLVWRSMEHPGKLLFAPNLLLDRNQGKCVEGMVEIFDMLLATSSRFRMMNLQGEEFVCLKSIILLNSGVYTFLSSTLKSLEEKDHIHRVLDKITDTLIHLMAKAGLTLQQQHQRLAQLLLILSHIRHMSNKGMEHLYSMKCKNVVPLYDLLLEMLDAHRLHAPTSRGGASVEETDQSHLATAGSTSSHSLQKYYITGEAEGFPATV
The experiment in a line: 2X VIT ERE Transfection (luciferase) Assay in CHO cells. Also on record: expressed in transfected cells; host or cells: Chinese Hamster Ovary (CHO) cells, stably transfected. To be noted: for % Activation with 1 nM 17β-estradiol (luciferase): 1 uM compound + 1 nM 17β-estradiol, 24 h (antagonism); for activation at 1 µM: CHO, 24 h. The format is cell-based. As to the method:
2X VIT ERE Transfection Assay
as §1
Chinese Hamster Ovary cells (CHO) which had been stably transfected with the human estrogen receptor were maintained in DMEM+10% fetal bovine serum (FBS). 48 h prior to treatment the growth medium was replaced with DMEM lacking phenol red +10% dextran coated charcoal stripped FBS (treatment medium). Cells were plated at a density of 5000 cells/well in 96-well plates containing 200 μL of medium/well.
Calcium Phoshate Transfection
Reporter DNA (Promega plasmid pGL2 containing two tandem copies of the vitellogenin ERE in front of the minimal thymidine kinase promoter driving the luciferase gene) was combined with the B-galactosidase expression plasmid pCH110 (Pharmacia) and carrier DNA (pTZ18U) in the following ratio:
20 uL of this mixture was added to each well of cells and remained on the cells for 16 h. […] Each treatment condition was performed on 8 wells (n=8) which were incubated for 24 h prior to the luciferase assay.
After removing the PBS, 25 uL of Promega lysis buffer was added to each well and allowed to stand at room temperature for 15 min, followed by 15 min at -80° C. and 15 min at 37° C. 20 uL of lysate was transferred to an opaque 96 well plate for luciferase activity evaluation and the remaining lysate (5 uL) was used for the B-galactosidase activity evaluation (normalize transfection). The luciferan substrate (Promega) was added in 100 uL aliquots to each well automatically by the luminometer and the light produced (relative light units) was read 10 seconds after addition.
To the remaining 5 uL of lysate 45 uL of PBS was added. Then 50 uL of Promega B-galactosidase 2× assay buffer was added, mixed well and incubated at 37° C. for 1 hour. A plate containing a standard curve (0.1 to 1.5 milliunits in triplicate) was set up for each experimental run. The plates were analyzed on a Molecular Devices spectrophotometric plate reader at 410 nm. The optical densities for the unknown were converted to milliunits of activity by mathematical extrapolation from the standard curve.
The luciferase data was generated as relative light units (RLUs) accumulated during a 10 second measurement and automatically transferred to a JMP (SAS Inc) file where background RLUs were subtracted. The B-galactosidase values were automatically imported into the file and these values were divided into the RLUs to normalize the data. The mean and standard deviations were determined from a n=8 for each treatment. […] These techniques are described by Tzukerman, M. T., Esty, A., Santiso-Mere, D., Danielian, P., Parker, M. G., Stein, R. B., Pike, J. W. and McDonnel, D. P. (1994). Human estrogen receptor transactivational capacity was determined by both cellular and promoter context and mediated by two functionally distinct intramolecular regions (see Molecular Endocrinology, 8:21-30).

The test system of the next test is uteri. The experiment in a line: Rat Uterotrophic/Antiuterotrophic Bioassay (results headed 3-Day Ovariectomized Rat Model). Format: in vivo, rat (Sprague-Dawley). To be noted: 1 μG; Example 12 experiment, control = 31.4 mg. As to the method: Rat Uterotrophic/Antiuterotrophic Bioassay
Immature Sprague-Dawley rats (female, 18 days old) were tested in groups of six. […] On day 4 the animals were sacrificed by CO2 asphyxiation and their uteri were removed and stripped of excess lipid, any fluid removed and the wet weight determined. A small section of one horn was submitted for histology and the remainder used to isolate total RNA in order to evaluate complement component 3 gene expression.

In test [2] the target is T1, estrogen receptor. Put plainly: In Vitro Estrogen Receptor Binding Assay ([3H]-17β-estradiol competition, cytosol of CHO cells overexpressing the estrogen receptor). On the set-up: made in house; host or cells: CHO cells overexpressing the receptor; 100,000 g cytosol. As to the method:
In Vitro Estrogen Receptor Bonding Assay
CHO cells overexpressing the estrogen receptor were grown in 150 mm^2 dishes in DMEM+10% dextran coated charcoal, stripped fetal bovine serum. The plates were washed twice with PBS and once with 10 mM Tris-HCl, pH 7.4, 1 mM EDTA. Cells were harvested by scraping the surface and then the cell suspension was placed on ice. Cells were disrupted with a hand-held motorized tissue grinder using two, 10-second bursts. […] The cytosol was then frozen and stored at -80° C. Protein concentration of the cytosol was estimated using the BCA assay with reference standard protein.
100 uG/100 uL of the receptor preparation was aliquoted per well. […] The plate was incubated at room temperature for 2.5 h. […] 200 uL of the supernatant solution was then removed for scintillation counting. Samples were counted to 2% or 10 minutes, whichever occurs first. […] Also, wells containing radioactivity but no cytosol were processed with charcoal to estimate unremovable DPM of [^3 H] […].
Counts per minute (CPM) of radioactivity were automatically converted to disintegrated per minute (DPM) by the Beckman LS 7500 Scintillation Counter using a set of quenched standards to generate a H# for each sample.
((DPM sample-DPM not removed by charcoal)/(DPM estradiol-DPM not removed by charcoal))×100%=% of estradiol binding
For the generation of IC50 curves, % binding is plotted vs compound. […] For a description of these methods, see Hulme, E. C., ed. […] Receptor-Ligand Interactions: A Practical Approach. IRL Press, New York (see especially chapter 8).

In the case of `Cc1c(-c2ccc(O)cc2)n(Cc2ccc(/C=C/C(=O)N3CCCC3)cc2)c2ccc(O)cc12` [Example 9, (E)-Pyrrolidino-3-{4-[5-hydroxy-2-(4-hydroxy-phenyl)-3-methyl-indol-1-ylmethyl]-phenyl}-acrylamide], in the test with Ishikawa cells, the “% Activation (Compound ± 1 nM 17β-estradiol) (alkaline phosphatase)” value came to 11% and the “% Activation (alkaline phosphatase)” value was 3%. Besides, on estrogen receptor [1], the “% Activation with 1 nM 17β-estradiol (luciferase)” value (“% Activation … (luciferase)” for short) is listed as 8% and the activation at 1 µM was 6%.
For the molecule `Cc1c(-c2ccc(O)cc2)n(Cc2ccc(/C=C/C(=O)N3CCOCC3)cc2)c2ccc(O)cc12` [Example 13], in the test with Ishikawa cells, the “% Activation (Compound ± 1 nM 17β-estradiol) (alkaline phosphatase)” value worked out at 9% and the “% Activation (alkaline phosphatase)” value is listed as 7%. On estrogen receptor [1], the “% Activation … (luciferase)” value is recorded as 17% and the activation at 1 µM was determined as 8%.
Take `C[C@]12CC[C@@H]3c4ccc(O)cc4CC[C@H]3[C@@H]1CC[C@@H]2O` [17β-estradiol, reference compound]: in the test with uteri, the “uterine wet weight, 1 μG 17β-estradiol” value was determined as 89.0 mg.
On to `CCCCN(C)C(=O)/C=C/c1ccc(Cn2c(-c3ccc(O)cc3)c(C)c3cc(O)ccc32)cc1` [Example 12, (E)-N-Butyl. N'-methyl-3-{4-[5-hydroxy-2-(4-hydroxy-phenyl)-3-methyl-indol-1-ylmethyl]-phenyl}-acrylamide], for which, in the test on Ishikawa cells, the “% Activation (Compound ± 1 nM 17β-estradiol) (alkaline phosphatase)” value is 16% and the “% Activation (alkaline phosphatase)” value was determined as 7%. Besides, on estrogen receptor [1], the “% Activation … (luciferase)” value is given as 24% and the activation at 1 µM is 13%. The “Estrogen Receptor Affinity (RBA)” value on estrogen receptor [2] stood at 114.
In the case of `Cc1c(-c2ccc(O)cc2)n(Cc2ccc(/C=C/C(N)=O)cc2)c2ccc(O)cc12` [Example 14, (E)-3-{4-[5-hydroxy-2-(4-hydroxy-phenyl)-3-methyl-indol-1-ylmethyl]-phenyl}-acrylamide], in the test with Ishikawa cells, the “% Activation (Compound ± 1 nM 17β-estradiol) (alkaline phosphatase)” value was found to be 14% and the “% Activation (alkaline phosphatase)” value is reported as 2%. For the same molecule, at estrogen receptor [1], the “% Activation … (luciferase)” value came out at 57% and the activation at 1 µM was found to be 19%. Moreover, on estrogen receptor [2], the “Estrogen Receptor Affinity (RBA)” value amounted to 32.
Take `Cc1c(-c2ccc(O)cc2)n(Cc2ccc(/C=C/C(=O)NC(C)(C)C)cc2)c2ccc(O)cc12` [Example 8, 1(E)-N-tert-butyl-3-{4-[5-hydroxy-2-(4-hydroxy-phenyl)-3-methyl-indol-1-ylmethyl]-phenyl}-acrylamide]: in the test on Ishikawa cells, the “% Activation (Compound ± 1 nM 17β-estradiol) (alkaline phosphatase)” value is given as 22% and the “% Activation (alkaline phosphatase)” value stood at 10%. In addition, on estrogen receptor [1], the “% Activation … (luciferase)” value is reported as 78% and the activation at 1 µM turned out to be 6%. Besides, the “Estrogen Receptor Affinity (RBA)” value on estrogen receptor [2] was determined as 40.
For the molecule `Cc1c(-c2ccc(O)cc2)n(Cc2ccc(/C=C/C(=O)N(C)C)cc2)c2ccc(O)cc12` [Example 10, (E)-N,N-Dimethyl-3-{4-[5-hydroxy-2-(4-hydroxy-phenyl)-3-methyl-indol-1-ylmethyl]-phenyl}-acrylamide], in the test with Ishikawa cells, the “% Activation (Compound ± 1 nM 17β-estradiol) (alkaline phosphatase)” value was 19% and the “% Activation (alkaline phosphatase)” value came to 6%. At estrogen receptor [1], the “% Activation … (luciferase)” value was found to be 2% and the activation at 1 µM was determined as 1%. In addition, on estrogen receptor [2], the “Estrogen Receptor Affinity (RBA)” value is 20.
On the same counts, the results for `CNC(=O)/C=C/c1ccc(Cn2c(-c3ccc(O)cc3)c(C)c3cc(O)ccc32)cc1` [Example 15, (E)-N,Methyl-3-{4-[5-hydroxy-2-(4-hydroxy-phenyl)-3-methyl-indol-1-ylmethyl]-phenyl}-acrylamide] are 5%, 0%, 31%, 15% and 53.
On the same counts, the results for `CCN(CC)C(=O)/C=C/c1ccc(Cn2c(-c3ccc(O)cc3)c(C)c3cc(O)ccc32)cc1` [Example 7, (E)-N,N-Diethyl-3-{4-[5-hydroxy-2-(4-hydroxy-phenyl)-3-methyl-indol-1-ylmethyl]-phenyl}-acrylamide] are 9%, 1%, 8%, 4% and 42.

The record behind these values is patent US5985910A, “3- [4- (2- Phenyl-Indole-1-ylmethyl) Phenyl]- Acrylamides as estrogenic agents” (priority 1997, dated 1999).
